The text below walks through data of patent publication US12570642B2, “GLP-IR modulating compounds” (Gilead Sciences, Inc., priority 2021, dated 2026).

This assay addresses GLP-1R (Homo sapiens, UniProt P43220). Kind of assay: GLP-1R Activation - cAMP Assay. Format: cell-based. As to conditions: cAMP increase in CHO cells stably expressing GLP-1R; each compound run on one of the two cAMP assays (Assay 1 or Assay 2, not specified). In a few lines:
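CHO cells stably expressing GLP-1R, plated at 1,000 cells/well overnight, then equilibrated 1 h in HBSS with 20 mM Hepes and 0.1% BSA. Agonist added as 10-point dose response for 30 min at 37 °C. cAMP measured by HTRF (Cisbio Gs Dynamic kit); EC50 from sigmoidal fit.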
(Changes in cAMP serve as a functional read-out for many G protein-coupled receptors.)

Chain of GLP-1R (P43220 24-463): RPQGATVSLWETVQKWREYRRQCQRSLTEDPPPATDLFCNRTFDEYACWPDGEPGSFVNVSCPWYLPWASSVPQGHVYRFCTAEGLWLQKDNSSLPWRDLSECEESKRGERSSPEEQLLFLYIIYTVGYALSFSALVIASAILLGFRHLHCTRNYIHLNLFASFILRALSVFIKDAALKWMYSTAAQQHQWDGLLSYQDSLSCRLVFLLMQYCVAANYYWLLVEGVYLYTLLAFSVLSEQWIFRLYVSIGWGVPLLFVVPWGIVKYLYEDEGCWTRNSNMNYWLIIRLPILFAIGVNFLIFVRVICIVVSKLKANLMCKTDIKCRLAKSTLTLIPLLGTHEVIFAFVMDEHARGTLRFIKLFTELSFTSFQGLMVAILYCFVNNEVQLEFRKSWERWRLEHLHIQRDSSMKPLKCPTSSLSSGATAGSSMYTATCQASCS

Broadly, the EC50 is the concentration at which the effect is half-maximal. Higher therefore signals lower potency in that assay. `N#Cc1ccc(COc2cccc(-c3cc(F)c(Cc4nc5ccc(C(=O)O)cc5n4CC4CC5(CC5)CO4)cc3F)n2)c(F)c1` (stereo not shown) [Example 274, 1-(5-oxaspiro[2.4]heptan-6-ylmethyl)-2-(4-(6-((4-cyano-2-fluorobenzyl)oxy)pyridin-2-yl)-2,5-difluorobenzyl)-1H-benzo[d]imidazole-6-carboxylic acid] came in with an EC50 of 0.643 nM.
The same measure for `CC1(C)CC(n2c(Cc3cc(F)c(-c4cccc(OCc5ccc(C#N)cc5F)n4)cc3F)nc3ccc(C(=O)O)cc32)C(C)(C)O1` (stereo not shown) [Example 199, 2-(4-(6-((4-cyano-2-fluorobenzyl)oxy)pyridin-2-yl)-2,5-difluorobenzyl)-1-(2,2,5,5-tetramethyltetrahydrofuran-3-yl)-1H-benzo[d]imidazole-6-carboxylic acid]: 90.9 nM.
Regarding `CC1(C)COC[C@H]1n1c(Cc2cc(F)c(-c3cccc(OCc4ccc(-n5ccnn5)nc4)n3)cc2F)nc2ccc(C(=O)O)cc21` [Example 254, (S)-2-(4-(6-((6-(1H-1,2,3-triazol-1-yl)pyridin-3-yl)methoxy)pyridin-2-yl)-2,5-difluorobenzyl)-1-(4,4-dimethyltetrahydrofuran-3-yl)-1H-benzo[d]imidazole-6-carboxylic acid], the EC50 stood at 0.088 nM.
Compound `CC1(C)COC[C@H]1n1c(Cc2cc(F)c(-c3ccc(F)c(OCc4ccc(Cl)cc4F)c3)cc2F)nc2ccc(C(=O)O)cc21` [Example 509, (S)-2-((3′-((4-chloro-2-fluorobenzyl)oxy)-2,4′,5-trifluoro-[1,1′-biphenyl]-4-yl)methyl)-1-(4,4-dimethyltetrahydrofuran-3-yl)-1H-benzo[d]imidazole-6-carboxylic acid] displayed an EC50 of 0.144 nM.
The compound `COCCn1c(Cc2cc(F)c(-c3cc(OC)cc(OCc4ccc(C#N)cc4F)n3)cc2F)nc2ccc(C(=O)O)cc21` [Example 43, 2-(4-(6-((4-cyano-2-fluorobenzyl)oxy)-4-methoxypyridin-2-yl)-2,5-difluorobenzyl)-1-(2-methoxyethyl)-1H-benzo[d]imidazole-6-carboxylic Acid] returned an EC50 of 20.8 nM.
`CC1(C)COC[C@H]1n1c(Cc2cc(F)c(-c3cccc(OCc4ccc(-n5ccnn5)cc4)n3)cc2F)nc2ccc(C(=O)O)cc21` [Example 183, (S)-2-(4-(6-((4-(1H-1,2,3-triazol-1-yl)benzyl)oxy)pyridin-2-yl)-2,5-difluorobenzyl)-1-(4,4-dimethyltetrahydrofuran-3-yl)-1H-benzo[d]imidazole-6-carboxylic Acid] gave an EC50 of 0.129 nM.
`COCCn1c(Cc2cc(F)c(-c3cccc(OCc4ccc(C(C)(F)F)cc4)n3)cc2F)nc2ccc(C(=O)O)cc21` [Example 96, 2-(4-(6-((4-(1,1-difluoroethyl)benzyl)oxy)pyridin-2-yl)-2,5-difluorobenzyl)-1-(2-methoxyethyl)-1H-benzo[d]imidazole-6-carboxylic Acid] yielded an EC50 of 0.98 nM.
As to `CC1(C)COC[C@@H]1n1c(Cc2cc(F)c(-c3cccc(OCc4ccc(C(F)F)cc4F)n3)cc2F)nc2c(F)cc(C(=O)O)cc21` (single isomer, unassigned) [Example 502B], the EC50 was determined as 0.939 nM.
`CC1(C)COCC1n1c(Cc2cc(F)c(-c3cccc(OCc4cc(F)c(Cl)cc4F)n3)cc2F)nc2c(F)cc(C(=O)O)cc21` (stereo not shown) [Example 501, 2-(4-(6-((4-chloro-2,5-difluorobenzyl)oxy)pyridin-2-yl)-2,5-difluorobenzyl)-1-(4,4-dimethyltetrahydrofuran-3-yl)-4-fluoro-1H-benzo[d]imidazole-6-carboxylic acid] gave an EC50 of 0.508 nM.
Regarding `CC1(C)COC[C@H]1n1c(Cc2ccc(-c3ccc(F)c(OCc4ccc(C#N)cc4)n3)cc2F)nc2ccc(C(=O)O)cc21` [Example 370, (S)-2-(4-(6-((4-cyanobenzyl)oxy)-5-fluoropyridin-2-yl)-2-fluorobenzyl)-1-(4,4-dimethyltetrahydrofuran-3-yl)-1H-benzo[d]imidazole-6-carboxylic acid], a half-maximal effect (EC50) was put at 0.042 nM.
`Cc1cn(-c2ccc(COc3cccc(-c4cc(F)c(Cc5nc6ccc(C(=O)O)cc6n5[C@@H]5COCC5(C)C)cc4F)n3)c(F)c2)nn1` [Example 164, (S)-2-(2,5-difluoro-4-(6-((2-fluoro-4-(4-methyl-1H-1,2,3-triazol-1-yl)benzyl)oxy)pyridin-2-yl)benzyl)-1-(4,4-dimethyltetrahydrofuran-3-yl)-1H-benzo[d]imidazole-6-carboxylic Acid] returned a concentration giving a half-maximal response (EC50) of 0.085 nM.
Under `CO[C@@H]1COC[C@@H]1n1c(Cc2cc(F)c(-c3cccc(OCc4ccc(C#N)cc4F)n3)cc2F)nc2ccc(C(=O)O)cc21` (single isomer, unassigned) [Example 275] stands 0.168 nM; under `CC1(C)COC[C@H]1n1c(Cc2cc(F)c(-c3cccc(OCc4ccc(C(F)(F)F)cc4)n3)cc2F)nc2ccc(C(=O)O)cc21` [Example 358, (S)-2-(2,5-difluoro-4-(6-((4-(trifluoromethyl)benzyl)oxy)pyridin-2-yl)benzyl)-1-(4,4-dimethyltetrahydrofuran-3-yl)-1H-benzo[d]imidazole-6-carboxylic acid], 0.124 nM; under `COCCn1c(Cc2c(F)cc(-c3cccc(OCc4ccc(Cl)cc4)n3)c(F)c2F)nc2c(F)cc(C(=O)O)cc21` [Example 377, 2-(4-(6-((4-chlorobenzyl)oxy)pyridin-2-yl)-2,3,6-trifluorobenzyl)-4-fluoro-1-(2-methoxyethyl)-1H-benzo[d]imidazole-6-carboxylic acid], 0.188 nM.
The same measure for `CO[C@H](C)Cn1c(Cc2cc(F)c(-c3cccc(OCc4ccc(-n5ccnn5)cc4F)n3)cc2F)nc2c(F)cc(C(=O)O)cc21` [Example 354, (R)-2-(2,5-difluoro-4-(6-((2-fluoro-4-(1H-1,2,3-triazol-1-yl)benzyl)oxy)pyridin-2-yl)benzyl)-4-fluoro-1-(2-methoxypropyl)-1H-benzo[d]imidazole-6-carboxylic acid]: 0.528 nM; for `COCCn1c(Cc2cc(F)c(-c3cccc(OCc4cnc(-n5ccnn5)cc4Cl)n3)cc2F)nc2ccc(C(=O)O)cc21` [Example 214, 2-(4-(6-((4-chloro-6-(1H-1,2,3-triazol-1-yl)pyridin-3-yl)methoxy)pyridin-2-yl)-2,5-difluorobenzyl)-1-(2-methoxyethyl)-1H-benzo[d]imidazole-6-carboxylic acid]: 0.299 nM.
The same measure for `CC(C)(O)C#Cc1cc(C(=O)O)cc2c1nc(Cc1cc(F)c(-c3cccc(OCc4ccc(C#N)cc4F)n3)cc1F)n2C1COCC1(C)C` (stereo not shown) [Example 47]: 0.78 nM; for `CC1(C)COC[C@H]1n1c(Cc2cc(F)c(-c3ccc(F)c(OCc4ccc(C#N)cc4F)n3)cc2F)nc2ccc(C(=O)O)cc21` [Example 496, (S)-2-(4-(6-((4-cyano-2-fluorobenzyl)oxy)-5-fluoropyridin-2-yl)-2,5-difluorobenzyl)-1-(4,4-dimethyltetrahydrofuran-3-yl)-1H-benzo[d]imidazole-6-carboxylic acid]: 0.026 nM.
Turning to `COC[C@H]1COC[C@H]1n1c(Cc2cc(F)c(-c3ccc(F)c(OCc4ccc(C(F)(F)F)cc4)n3)cc2F)nc2ccc(C(=O)O)cc21` [Example 538, 2-(2,5-difluoro-4-(5-fluoro-6-((4-(trifluoromethyl)benzyl)oxy)pyridin-2-yl)benzyl)-1-((3S,4S)-4-(methoxymethyl)tetrahydrofuran-3-yl)-1H-benzo[d]imidazole-6-carboxylic acid], the EC50 is 0.109 nM.
